In patent US9340577B2, “HLA binding motifs and peptides and their uses” (priority 1992, dated 2016):
pIC50: −log10 of the molar value. Entries after “also recorded” stand apart in the source; their conditions may differ. Read-outs that look alike come from different tables or passages of the source. Marks after values point to notes of the source that are not given here. No end group written: not given here.

Key:
B*5301 = B*5301 (Homo sapiens, UniProt P01889, A329T/A93T/A95T/C349S/D201E/D98Y/E176V/E187L/E204Q/E69T/G107R/I218V/K202T/L105A/L119I/N104I/Q94N/R106L/R155S/R180L/S101N/S121R/S35A/S48A/T118I/V127L/V306I/V36M/Y140S/Y91F); experiment: biochemical; conditions: for IC50: B*5301 (nM)
[1] = test system: peptide-coated Jurkat A2/Kb target cells; parameters: species or system mice; conditions: mouse, in vivo
A2.1 HLA molecules = A2.1 HLA molecules (Homo sapiens, UniProt P04439, D140Y/D185E/D98H/E176V/E277Q/G131W/G231S/I119V/I121R/I166T/I218V/L300P/L318F/N151K/N90K/P208A/P217A/Q86G/Q94H/R138H/R169H/T345S); format: binding; parameters: A*0201 / A2.1 Binding / A2 Bind. / A2 / A2.1 (binding capacity): scale not given here
HLA-A*0201 (HLA-A2.1) = HLA-A*0201 (HLA-A2.1) (Homo sapiens, UniProt P04439, D140Y/D185E/D98H/E176V/E277Q/G131W/G231S/I119V/I121R/I166T/I218V/L300P/L318F/N151K/N90K/P208A/P217A/Q86G/Q94H/R138H/R169H/T345S); experiment: biochemical; format: binding
B*0701 = B*0701 (Homo sapiens, UniProt P01889); experiment: biochemical; conditions: for IC50: B*0701 (nM), Binding of peptides to B7-like supermotif alleles, Table 36
B*5401 = B*5401 (Homo sapiens, UniProt P01889, A329T/C349S/D138N/D201E/E176V/E187T/E204Q/E69G/I76V/K202T/L119W/R155S/R180L/S121T/S35A/S48A/V127L/V306I/V36M/Y140L); experiment: biochemical

Compound	IC50 (B*5301)	A2.1 Binding (A2.1 HLA molecules)	Immunogenicity Experiment 1 [1]	other results
CC[C@H](C)[C@H](NC(=O)[C@H](Cc1ccc(O)cc1)NC(=O)[C@H](CC(C)C)NC(=O)[C@H](Cc1c[nH]cn1)NC(=O)CNC(=O)[C@@H](NC(=O)[C@@H]1CCCN1C(=O)[C@@H](N)CC(=O)O)[C@@H](C)CC)C(=O)N[C@@H](Cc1ccccc1)C(=O)O [15.138]	2550 nM	–	–	–
EPIVGAETF [15.091]	4770 nM	–	–	–
YMLDLQPETT	–	–	–	CTL response in HLA-A2.1 transgenic mice [1]: most immunogenic
E7.711088.07 (TLHEYMLDL) [Peptide E7.711088.07]	–	0.0070	— (key: —: a dash indicates _Lytic Units with a geometric mean ≦0.2)	–
TIHDIILECV	–	–	–	CTL response in HLA-A2.1 transgenic mice [1]: most immunogenic
E7.73/1088.13 (HVDIRTLED)	–	0	— (key: —: a dash indicates _Lytic Units with a geometric mean ≦0.2)	–
E7.85/1088.08 (GTLGIVCPI)	–	0.021	–	Immunogenicity Experiment 2 [1]: —** (key: —: a dash indicates _Lytic Units with a geometric mean ≦0.2)
TLGIVXPI	–	–	–	crossreactivity of induced CTLs with wild type sequence [1]: fully crossreactive with the wild type sequence; immunogenicity in A2/Kb transgenic mice versus wild type peptide [1]: more potent immunogen; change of binding affinity for all A2 alleles versus parent (HLA-A*0201 (HLA-A2.1)): greatly increased
WPLYGNEGL [15.041]	6890 nM	–	–	IC50 (B*0701): 859 nM
TPVNSQLGNI [15.246]	–	–	–	pIC50 (B*5301): 4.77
CSCC[C@H](NC(=O)[C@H](CC(C)C)NC(=O)[C@H](C)NC(=O)[C@@H]1CCCN1C(=O)[C@@H](N)Cc1ccc(O)cc1)C(=O)N1CCC[C@H]1C(=O)N[C@@H](CC(C)C)C(=O)N[C@@H](Cc1ccc(O)cc1)C(=O)N[C@@H](C)C(=O)O [16.008]	2580 nM	–	–	IC50 (B*0701): 524 nM; pIC50 (B*5401): 9.10
LLMGTLGIV	–	–	–	CTL response in HLA-A2.1 transgenic mice [1]: most immunogenic
CC[C@H](C)[C@H](NC(=O)[C@@H]1CCCN1C(=O)[C@@H](N)CCCCN)C(=O)N[C@H](C(=O)N[C@@H](CCC(N)=O)C(=O)N[C@@H](Cc1ccc(O)cc1)C(=O)N[C@@H](CC(=O)O)C(=O)N[C@@H](CC(N)=O)C(=O)N[C@@H](Cc1ccccc1)C(=O)O)C(C)C [15.185]	2040 nM	–	–	–
CC[C@H](C)[C@H](NC(=O)[C@H](Cc1ccc(O)cc1)NC(=O)[C@H](CC(C)C)NC(=O)[C@H](Cc1c[nH]cn1)NC(=O)CNC(=O)[C@@H](NC(=O)[C@@H]1CCCN1C(=O)[C@@H](N)CC(=O)O)[C@@H](C)CC)C(=O)N[C@@H](Cc1ccccc1)C(=O)N[C@@H](C)C(=O)O [16.201]	20700 nM	–	–	pIC50 (B*5401): 6.44
E7.12/1088.09 (MLDLQPETT)	–	0.0028	— (key: —: a dash indicates _Lytic Units with a geometric mean ≦0.2)	Immunogenicity Experiment 2 [1]: — (key: —: a dash indicates _Lytic Units with a geometric mean ≦0.2)
CC[C@H](C)[C@H](NC(=O)[C@@H](NC(=O)[C@H](Cc1ccccc1)NC(=O)[C@H](CC(N)=O)NC(=O)[C@@H](NC(=O)[C@@H](NC(=O)[C@H](CS)NC(=O)[C@@H]1CCCN1C(=O)[C@@H](N)Cc1ccc(O)cc1)[C@@H](C)O)C(C)C)[C@@H](C)O)C(=O)O [15.047]	102 nM	–	–	pIC50 (B*5401): 7.05
TLGIVCPI	–	–	–	CTL response in HLA-A2.1 transgenic mice [1]: most immunogenic; also recorded: strongest epitope
SPLLLSTTEQ [15.226]	–	–	–	pIC50 (B*0701): 4.67; pIC50 (B*5301): 7.26
E7.11/1088.04 (YMLDLQPET)	–	0.14	5.0 (3.70) Lytic Units	Immunogenicity Experiment 2 [1]: 2.6 (15.5) Lytic Units
E6.5211088.05 (FAFRDLCIV) [Peptide E6.5211088.05]	–	0.057	— (key: —: a dash indicates _Lytic Units with a geometric mean ≦0.2)	–
E6.29/1088.10 (TIHDIILECV)	–	0.021	22.13 (3.71) Lytic Units	Immunogenicity Experiment 2 [1]: 0.4 (3.52) Lytic Units
E7.86/1088.01 (TLGIVCPI)	–	0.15	94.4 (1.34) Lytic Units	Immunogenicity Experiment 2 [1]: 54.2 (1.43)* Lytic Units
